Reference: patent US20180263985A1, “MODULATORS OF TOLL-LIKE RECEPTORS FOR THE TREATMENT OF HIV” (Gilead Sciences, Inc., priority 2015, published 2018)

System: HIV-infected CD4 T cells
Test: PGT121 antibody-mediated killing of HIV-infected CD4 T cells, monocyte effector model
Assay type: cell-based, human
Conditions: monocytes from 1 subject pre-treated 1 day with 11 or 33 nM
Excerpt: NK cells and monocytes mediate antibody-dependent cellular cytotoxicity (ADCC) and antibody-dependent cellular phagocytosis (ADCP) respectively. To assess the ability of the compound of Example 15 to enhance ADCC and ADCP, two models were developed using monocytes or PBMCs as effector cells and HIV-infected CD4 T cells as target cells. PBMCs were isolated from 3 healthy subjects' leukaphereses (AlICells, participant IDs A4593, A4596, A4606), as described above. CD4 T cells were isolated from PBMCs using negative selection magnetic beads (EasySep, StemCell Technologies). CD4 T cells were spinfected with HIV-1 isolate 92HT593 (NIH AIDS Reagent Program) and cultured for 5 days at 37° C. For the PBMC model, autologous PBMCs were cultured for 5 days with vehicle control (DMSO) or Example 15 at 100 or 1000 nM. […] Marker staining was measured by flow cytometry using a LSR Fortessa (BD Biosciences) and analyzed with FlowJo software (TreeStar). The percent killing was determined by calculating the reduction of p24+CD4+ T cells mediated by PGT121 antibody relative to a no antibody control.
PBMCs (FIG. 3) or monocytes (FIG. 4) were treated with DMSO or TLR8 agonist for 5 days (FIG. 3) or 1 day (FIG. 4) and then co-cultured for 1 day with autologous HIV-infected CD4 T cells−/+anti-HIV Env antibody PGT121. Reductions in %p24+ CD4+ T cells, relative to no antibody control, were measured by FACS. […]

SMILES: CCCC[C@H](CO)Nc1nc(N)nc2cccnc12 [Example 15]
- PGT121-mediated killing of HIV-infected CD4+ T cells compared to DMSO control: markedly enhanced
